Assays:
[1] = tested on: Trypanosoma cruzi; experiment: Antitrypanosomal activity against bloodstream form of Trypanosoma cruzi Y trypomastigotes infected in African green monkey Vero cells assessed as increase in parasite lysis measured after 24 hrs by Neubauer chamber method; format: functional, organism-based
[2] = tested on: Trypanosoma cruzi; experiment: Antitrypanosomal activity against Trypanosoma cruzi Y axenic amastigotes infected in African green monkey Vero cells after 24 hrs by MTT assay; format: functional, organism-based
[3] = Selectivity index, ratio of GI50 for human HepG2 cells assessed as reduction in cell viability measured after 24 hrs by WST1 assay to IC50 for antitrypanosomal activity against bloodstream form of Trypanosoma cruzi Y trypomastigotes infected in African green monkey Vero cells; format: toxicity; conditions: read-out: Selectivity Index
[4] = Selectivity index, ratio of GI50 for mouse RAW264.7 cells assessed as reduction in cell viability measured after 24 hrs by WST1 assay to IC50 for antitrypanosomal activity against Trypanosoma cruzi Y axenic amastigotes infected in African green monkey Vero cells; format: toxicity; conditions: read-out: Selectivity Index
[5] = Selectivity index, ratio of GI50 for mouse RAW264.7 cells assessed as reduction in cell viability measured after 24 hrs by WST1 assay to IC50 for antitrypanosomal activity against bloodstream form of Trypanosoma cruzi Y trypomastigotes infected in African green monkey Vero cells; format: toxicity; conditions: read-out: Selectivity Index
[6] = Cytotoxicity against human HepG2 cells assessed as reduction in cell viability measured after 24 hrs by WST1 assay; format: cell-based
[7] = Cytotoxicity against mouse RAW264.7 cells assessed as reduction in cell viability measured after 24 hrs by WST1 assay; format: cell-based
[8] = tested on: RAW264.7; experiment: Cytotoxicity against mouse RAW264.7 cells at 21.3 to 427 uM measured after 24 hrs by LDH assay; format: cell-based; conditions: raw264.7, 24 h, dose 21.3-427 µM
[9] = Selectivity index, ratio of GI50 for human HepG2 cells assessed as reduction in cell viability measured after 24 hrs by WST1 assay to IC50 for antitrypanosomal activity against Trypanosoma cruzi Y axenic amastigotes infected in African green monkey Vero cells; format: toxicity; conditions: read-out: Selectivity Index
[10] = Mutagenicity in Salmonella typhimurium TA97 measured after 20 mins in absence of S9 fraction by microsome assay; format: toxicity; conditions: salmonella enterica subsp. enterica serovar typhimurium, microsomes, dose 5-100 µg
[11] = Mutagenicity in Salmonella typhimurium TA97 measured after 20 mins in presence of S9 fraction by microsome assay; format: toxicity, subcellular; conditions: salmonella enterica subsp. enterica serovar typhimurium, s9, 20 min, dose 5-100 µg
[12] = Mutagenicity in Salmonella typhimurium TA98 measured after 20 mins in absence of S9 fraction by microsome assay; format: toxicity; conditions: salmonella enterica subsp. enterica serovar typhimurium, microsomes, dose 5-100 µg
[13] = Mutagenicity in Salmonella typhimurium TA98 measured after 20 mins in presence of S9 fraction by microsome assay; format: toxicity, subcellular; conditions: salmonella enterica subsp. enterica serovar typhimurium, s9, 20 min, dose 5-100 µg
[14] = Mutagenicity in Salmonella typhimurium TA100 measured after 20 mins in absence of S9 fraction by microsome assay; format: toxicity; conditions: salmonella enterica subsp. enterica serovar typhimurium, microsomes, dose 5-100 µg
[15] = Mutagenicity in Salmonella typhimurium TA100 measured after 20 mins in presence of S9 fraction by microsome assay; format: toxicity, subcellular; conditions: salmonella enterica subsp. enterica serovar typhimurium, s9, 20 min, dose 5-100 µg
[16] = Mutagenicity in Salmonella typhimurium TA102 measured after 20 mins in absence of S9 fraction by microsome assay; format: toxicity; conditions: salmonella enterica subsp. enterica serovar typhimurium, microsomes, dose 5-100 µg
[17] = Mutagenicity in Salmonella typhimurium TA102 measured after 20 mins in presence of S9 fraction by microsome assay; format: toxicity, subcellular; conditions: salmonella enterica subsp. enterica serovar typhimurium, s9, 20 min, dose 5-100 µg
[18] = Mutagenicity in Salmonella typhimurium TA97 assessed as revertant/ug measured after 20 mins in absence of S9 fraction by microsome assay; format: toxicity; conditions: salmonella enterica subsp. enterica serovar typhimurium, microsomes
[19] = Mutagenicity in Salmonella typhimurium TA97 assessed as revertant/ug measured after 20 mins in presence of S9 fraction by microsome assay; format: toxicity, subcellular; conditions: salmonella enterica subsp. enterica serovar typhimurium, s9, 20 min
[20] = Mutagenicity in Salmonella typhimurium TA100 assessed as revertant/ug measured after 20 mins in absence of S9 fraction by microsome assay; format: toxicity; conditions: salmonella enterica subsp. enterica serovar typhimurium, microsomes
[21] = Mutagenicity in Salmonella typhimurium TA100 assessed as revertant/ug measured after 20 mins in presence of S9 fraction by microsome assay; format: toxicity, subcellular; conditions: salmonella enterica subsp. enterica serovar typhimurium, s9, 20 min
[22] = Mutagenicity in Salmonella typhimurium YG1021 at 5 to 100 ug/plate after 20 mins by microsome assay; format: toxicity; conditions: salmonella enterica subsp. enterica serovar typhimurium, microsomes
[23] = Mutagenicity in Salmonella typhimurium YG1024 at 5 to 100 ug/plate after 20 mins by microsome assay; format: toxicity; conditions: salmonella enterica subsp. enterica serovar typhimurium, microsomes, dose 5-100 µg
[24] = Toxicity in Salmonella typhimurium TA97 at 100 ug/plate measured after 20 mins in absence of S9 fraction by colony counting method; conditions: salmonella enterica subsp. enterica serovar typhimurium, dose 100 µg
[25] = Toxicity in Salmonella typhimurium YG1021 at 5 to 100 ug/plate after 20 mins by colony counting method; conditions: salmonella enterica subsp. enterica serovar typhimurium, dose 5-100 µg
[26] = tested on: RAW264.7; experiment: Genotoxicity in mouse RAW264.7 cells assessed as mitotic index at 427 uM measured after 24 hrs by micronucleus test (reference value: 40 to 249); format: toxicity, cell-based; conditions: raw264.7, 24 h
[27] = Genotoxicity in mouse RAW264.7 cells assessed as survival at 213 uM measured after 24 hrs by micronucleus test (reference value: 100%); format: toxicity, cell-based; conditions: read-out: Survival
[28] = Genotoxicity in mouse RAW264.7 cells assessed as survival at 427 uM measured after 24 hrs by micronucleus test (reference value: 100%); format: toxicity, cell-based; conditions: read-out: Survival
[29] = tested on: HepG2; experiment: Genotoxicity in human HepG2 assessed as mitotic index at 2135 uM measured after 24 hrs by micronucleus test (reference value: 61 to 108); format: toxicity, cell-based; conditions: hepg2, 24 h
[30] = Genotoxicity in human HepG2 assessed as survival at 2135 uM measured after 24 hrs by micronucleus test (reference value: 100%); format: toxicity, cell-based; conditions: HepG2 cells, read-out: Survival
[31] = tested on: RAW264.7; experiment: Cytotoxicity against mouse RAW264.7 cells assessed as induction of membrane damage at 17.5 to 350 uM measured after 24 hrs by LDH assay; format: cell-based; conditions: raw264.7, 24 h, dose 17.5-350 µM
[32] = Toxicity in Salmonella typhimurium TA102 at 100 ug/plate measured after 20 mins in absence of S9 fraction by colony counting method; conditions: salmonella enterica subsp. enterica serovar typhimurium, dose 100 µg
[33] = tested on: RAW264.7; experiment: Genotoxicity in mouse RAW264.7 cells assessed as mitotic index at 3500 uM measured after 24 hrs by micronucleus test (reference value: 40 to 249); format: toxicity, cell-based; conditions: raw264.7, 24 h
[34] = Genotoxicity in mouse RAW264.7 cells assessed as survival at 350 uM measured after 24 hrs by micronucleus test (reference value: 100%); format: toxicity, cell-based; conditions: read-out: Survival
[35] = Genotoxicity in mouse RAW264.7 cells assessed as survival at 1750 uM measured after 24 hrs by micronucleus test (reference value: 100%); format: toxicity, cell-based; conditions: read-out: Survival
[36] = tested on: HepG2; experiment: Genotoxicity in human HepG2 assessed as mitotic index at 175 uM measured after 24 hrs by micronucleus test (reference value: 61 to 108); format: toxicity, cell-based; conditions: hepg2, 24 h
[37] = tested on: HepG2; experiment: Genotoxicity in human HepG2 assessed as mitotic index at 3500 uM measured after 24 hrs by micronucleus test (reference value: 61 to 108); format: toxicity, cell-based; conditions: hepg2, 24 h
[38] = Genotoxicity in human HepG2 assessed as survival at 175 uM measured after 24 hrs by micronucleus test (reference value: 100%); format: toxicity, cell-based; conditions: HepG2 cells, read-out: Survival
[39] = Genotoxicity in human HepG2 assessed as survival at 350 uM measured after 24 hrs by micronucleus test (reference value: 100%); format: toxicity, cell-based; conditions: HepG2 cells, read-out: Survival

Structure (SMILES)	IC50 [1] [µM]	IC50 [2] [µM]	selectivity ratio at 24 h [3]	selectivity ratio at 24 h [4]	selectivity ratio at 24 h [5]	GI50 at 24 h [6] [µM]	GI50 at 24 h [7] [µM]	selectivity ratio at 24 h [9]	Activity [10]	Activity [11]	Activity [12]	Activity [13]	Activity [14]	Activity [15]	Activity [16]	Activity [17]	Activity [18] [revertants/µg]	Activity [19] [µg]	Activity [20] [revertants/µg]	Activity [21] [revertants/µg]	other results
Cn1cnc([N+](=O)[O-])c1-n1cc(C2CC2)nn1	5.4	12	> 79	> 35.5	> 79	> 427	> 427	> 35.5	Toxic	Toxic	Non-Toxic	Non-Toxic	Toxic	Toxic	Toxic	Toxic	6.31	3.833	2.42	0.278	Activity [8]: Non-Toxic; Activity [22]: Non-Toxic; Activity [23]: Non-Toxic; Activity [24]: Toxic; Activity [25]: Non-Toxic; Activity_index [26]: 34; viability at 24 h, 213 µM [27]: 99%; viability at 24 h, 427 µM [28]: 99%; Activity_index [29]: 101; viability at 24 h, 2135 µM [30]: 95%
CCCCCc1ccc(-c2cn(-c3c([N+](=O)[O-])ncn3C)nn2)cc1	12.9	142	27	> 0.25	2.77	> 350	35.8	> 2.46	Toxic	Toxic	Non-Toxic	Non-Toxic	Toxic	Toxic	Toxic	Toxic	1.34	8.494	2.96	2.46	Activity [31]: Toxic; Activity [22]: Toxic; Activity [23]: Toxic; Activity [32]: Toxic; Activity [25]: Toxic; Activity_index [33]: 115; viability at 24 h, 350 µM [34]: 99%; viability at 24 h, 1750 µM [35]: 85%; Activity_index [36]: 111; Activity_index [37]: 53; viability at 24 h, 175 µM [38]: 99%; viability at 24 h, 350 µM [39]: 95%
